In EP0186173A2, “L-Aminodicarboxylic-(0-cycloalkyl)-L-aminocarboxylate alkyl esters, an edible composition containing same as sweeteners and a method for sweetening an edible composition” (GENERAL FOODS CORPORATION, priority 1984, dated 1986):
Where a SMILES comes first, the peptide text is derived from it. The star is where a group is joined. tBu = CC(C)(C)*

Columns and labels:
[1] = qualitative statement from prior art / literature; cited from earlier work
[2] = Sweetness taste panel: sucrose equivalency, aqueous solutions matched to sucrose standard solutions; settings: relative to sucrose
Excerpt: A taste procedure for determination of sweetness merely involves the determination.of sucrose equivalency. Sucrose equivalence for sweeteners are readily determined. The amount of a sweetener that is equivalent to a given weight percent sucrose can be determined by having a panel of tasters taste solutions of a sweetener at known concentrations and match its sweetness to standard solutionsof sucrose.
The following sensory evaluations were obtained by a panel of experts using known weight percent aqueous solutions of the above compound matched to sucrose standard solutions as previously described.

Q: Which sweetness [1] does the source give for `CCC(C)(C)OC[C@H](NC(=O)[C@@H](N)CC(=O)O)C(=O)OC` [L-aspartyl-0-t-amyl-L-serine methyl ester] here?
A: significant sweetness

Q: Which sweetness [1] does the source give for `COC(=O)[C@H](COC(C)(C)C)NC(=O)[C@@H](N)CC(=O)O` [L-aspartyl-0-t,- butyl-L-serine methyl ester] (H-Asp-Ser(tBu)-OMe) here?
A: significant sweetness

Q: With `CCOC(=O)[C@H](COC1(C)CCCC1)NC(=O)[C@@H](N)CC(=O)O` [∝-L-Aspartyl-O-(1-methylcyclopentyl)-L-serine ethyl ester] as the compound, how does the sweetness equivalent [2] read?
A: 150 x sucrose
